In publication PMC10641831 (Journal of Medicinal Chemistry, 2023):
Entries after “also recorded” stand apart in the source; their conditions may differ.

Tests used:
[1] = test system: GFP-conjugated human V1bR; assay: Immunostaining and confocal microscopy: V1bR-GFP activation/internalization in HEK293 cells; type: cell-based; conditions: 1 nM, 60 min
Source text: (§1) The most promising photoprobe, 12, with a 5.3-fold photoswitch activity window at V1bR, was selected for more comprehensive in vitro experiments to validate its application scope for biological and neurological studies. As a model system, we used HEK293 cells overexpressing GFP-tagged V1bR, where receptor activation via pCREB (phosphorylated cAMP response element binding protein) and V1bR-GFP internalization can be followed through immunostaining and confocal scanning microscopy.
(§2) HEK293 cells stably expressing a C-terminal-conjugated GFP human V1bR were cultured in a full growth medium consisting of DMEM/GlutaMAX (Gibco, Thermo Fisher), containing 0.5 mg/mL G-418 (Gibco, Thermo Fisher), 1 mM sodium pyruvate (Gibco, Thermo Fisher), and 10% fetal bovine serum (Gibco, Thermo Fisher). […]
(§3) Coverslips were first incubated with 5% normal donkey serum (Jackson Immuno Research), 2% bovine serum albumin (Sigma-Aldrich, Merck), and 0.2% Triton X-100 (Sigma-Aldrich, Merck) to block nonspecific protein binding. […] Images were analyzed with ZEN pro (Zeiss) ImageJ 1.52a and collated in CorelDraw 2019. To determine pCREB activation, the fluorescence was normalized to the negative control (cells treated with a serum-free medium without G-418 instead of 12), as already minor receptor interactions can lead to pCREB activity in overexpression systems.

[2] = test system: pCREB; assay: Immunostaining and confocal microscopy: pCREB activation in HEK293 cells overexpressing V1bR-GFP; type: cell-based, human; conditions: 1 nM, 60 min, normalized to negative control; VP 10 nM positive control
Source text: as §1, §2, §3

[3] = target: human oxytocin receptor (human) (UniProt P30559)
Chain of human oxytocin receptor (human) (P30559 whole entry): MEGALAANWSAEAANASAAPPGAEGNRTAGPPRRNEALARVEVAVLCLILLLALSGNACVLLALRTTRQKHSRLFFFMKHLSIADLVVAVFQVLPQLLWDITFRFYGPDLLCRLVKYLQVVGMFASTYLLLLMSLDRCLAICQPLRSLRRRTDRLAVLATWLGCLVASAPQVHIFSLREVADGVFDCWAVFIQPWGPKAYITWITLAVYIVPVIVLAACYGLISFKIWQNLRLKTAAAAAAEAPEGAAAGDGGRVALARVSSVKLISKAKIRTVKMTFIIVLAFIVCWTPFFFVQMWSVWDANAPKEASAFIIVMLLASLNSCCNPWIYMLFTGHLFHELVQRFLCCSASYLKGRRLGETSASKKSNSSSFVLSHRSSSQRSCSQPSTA

Chain of Oxytocin (P01178 whole entry, looked up): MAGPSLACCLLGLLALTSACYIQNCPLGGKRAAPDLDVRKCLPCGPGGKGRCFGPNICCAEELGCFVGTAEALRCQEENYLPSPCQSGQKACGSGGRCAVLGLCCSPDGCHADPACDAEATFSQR

| Compound | V1bR-GFP receptor activation / internalization [1] | pCREB activation (CREB phosphorylation) [2] | Emax (efficacy, reference), IP-One accumulation, HEK293 cells expressing hOTR [3] [%] |
| --- | --- | --- | --- |
| N=C(N)NCCC[C@H](NC(=O)[C@@H]1CCCN1C(=O)[C@@H]1CSSC[C@H](N)C(=O)N[C@@H](Cc2ccc(O)cc2)C(=O)N[C@@H](Cc2ccc(/N=N/c3ccccc3)cc2)C(=O)N[C@@H](CCC(N)=O)C(=O)N[C@@H](CC(N)=O)C(=O)N1)C(=O)NCC(N)=O [E-12] | did not cause any visible receptor activation or internalization; also recorded: did not induce V1bR-GFP internalization; also recorded: inactive | inactive |  |
| Oxytocin (from UniProt P01178 20-28) (peptide) |  |  | 100 |
| N=C(N)NCCC[C@H](NC(=O)[C@@H]1CCCN1C(=O)[C@@H]1CSSC[C@H](N)C(=O)N[C@@H](Cc2ccc(O)cc2)C(=O)N[C@@H](Cc2ccc(/N=N\c3ccccc3)cc2)C(=O)N[C@@H](CCC(N)=O)C(=O)N[C@@H](CC(N)=O)C(=O)N1)C(=O)NCC(N)=O [Z-12] | activated V1bR-GFP; also recorded: induced V1bR-GFP internalization | significantly (P < 0.001) activated pCREB at levels comparable to VP; also recorded: significantly induced CREB phosphorylation |  |
